The text below walks through data of patent US20210130445A1 (priority 2019, published 2021).

Details of experiment [1]: species or system human. As to conditions: in vivo, sc.
Details of experiment [2]: species or system human; unit not given here. To be noted: in vivo.

In the case of `C[C@@H]1[C@H](c2c(F)ccc(F)c2F)C[C@H](NC(=O)c2cnc3c(c2)C[C@@]2(C3)C(=O)Nc3ncccc32)C(=O)N1CC(F)(F)F` [atogepant], the patient-reported pain result in experiment [1] is “pain free”.

Turning to onabotulinumtoxinA, the “duration of significant pain alleviation” value in experiment [2] is given as “one to about six”. Besides, the patient-reported pain result in experiment [1] is on record as “pain free”.

B1: erenumab (antibody, chains of the INN, looked up, V domains shown)
VH: QVQLVESGGGVVQPGRSLRLSCAASGFTFSSFGMHWVRQAPGKGLEWVAVISFDGSIKYSVDSVKGRFTISRDNSKNTLFLQMNSLRAEDTAVYYCARDRLNYYDSSGYYHYKYYGMAVWGQGTTVTVSS
VL: QSVLTQPPSVSAAPGQKVTISCSGSSSNIGNNYVSWYQQLPGTAPKLLIYDNNKRPSGIPDRFSGSKSGTSTTLGITGLQTGDEADYYCGTWDSRLSAVVFGGGTKLTVL
On to B1, for which the “duration of significant pain alleviation” value in experiment [2] is listed as “one to about six”.
